Like-named read-outs stand apart in the source and are kept apart here.
Biological target: BRAF V600E (Homo sapiens, UniProt P15056, V600E)
Experiment: HiBiT cellular BRAF^V600E degradation assay
Format: cell-based
Details: for DC50: concentration at which 50% of total cellular BRAF^V600E is degraded; for Emax: read-out: HiBit 24 h Emax
[1] = A375.10 cells, 24 h, residual protein remaining in the cell

Chain of BRAF V600E (P15056 whole entry V600E): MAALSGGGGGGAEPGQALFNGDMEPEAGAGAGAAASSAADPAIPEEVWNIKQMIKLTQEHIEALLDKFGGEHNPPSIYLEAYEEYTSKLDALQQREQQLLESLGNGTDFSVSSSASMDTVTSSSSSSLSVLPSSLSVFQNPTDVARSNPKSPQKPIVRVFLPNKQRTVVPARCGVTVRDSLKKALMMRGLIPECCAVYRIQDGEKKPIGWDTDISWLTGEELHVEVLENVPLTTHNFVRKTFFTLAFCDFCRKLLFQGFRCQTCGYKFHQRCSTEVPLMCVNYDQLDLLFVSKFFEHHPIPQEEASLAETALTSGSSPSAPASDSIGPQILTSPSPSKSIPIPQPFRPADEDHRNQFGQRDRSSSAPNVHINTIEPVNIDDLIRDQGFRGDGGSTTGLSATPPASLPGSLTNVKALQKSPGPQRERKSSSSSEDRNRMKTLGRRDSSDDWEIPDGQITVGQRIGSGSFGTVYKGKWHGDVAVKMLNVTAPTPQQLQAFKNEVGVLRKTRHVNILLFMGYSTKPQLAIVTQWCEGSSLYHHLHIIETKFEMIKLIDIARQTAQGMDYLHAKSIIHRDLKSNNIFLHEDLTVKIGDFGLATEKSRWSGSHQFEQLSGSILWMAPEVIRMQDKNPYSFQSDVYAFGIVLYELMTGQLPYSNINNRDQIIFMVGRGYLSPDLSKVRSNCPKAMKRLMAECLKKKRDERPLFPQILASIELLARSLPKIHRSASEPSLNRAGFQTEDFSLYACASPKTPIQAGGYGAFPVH

SMILES | DC50 (A375.10 cells, 24 h) | Emax [1] | Emax
CCN(C)S(=O)(=O)Nc1ccc(F)c(Oc2ccc3ncn([C@H]4[C@@H]5CN(c6ccc(C(=O)NC7CCN(c8ccc(NC9CCC(=O)NC9=O)cc8F)CC7)cc6)C[C@@H]54)c(=O)c3c2)c1C#N (some centres unmarked) [Example 35, 4-[6-[6-[2-cyano-3-[[ethyl(methyl)sulfamoyl]amino]-6-fluorophenoxy]-4-oxoquinazolin-3-yl]-3-azabicyclo[3.1.0]hexan-3-yl]-N-[1-[4-[(2,6-dioxopiperidin-3-yl)amino]-2-fluorophenyl]piperidin-4-yl]benzamide] | 6.82 nM | 13.6% | –
CO[C@H]1CCN(S(=O)(=O)Nc2ccc(F)c(Oc3ccc4ncn([C@H]5COC6(CCN(C(=O)CC7(O)CCN(c8cc9c(cc8F)c(N8CCC(=O)NC8=O)nn9C)CC7)CC6)C5)c(=O)c4c3)c2C#N)C1 [Example 176, (3S)—N-[2-cyano-3-[3-[(3R)-8-[2-[1-[3-(2,4-dioxo-1,3-diazinan-1-yl)-5-fluoro-1-methylindazol-6-yl]-4-hydroxypiperidin-4-yl]acetyl]-1-oxa-8-azaspiro[4.5]decan-3-yl]-4-oxoquinazolin-6-yl]oxy-4-fluorophenyl]-3-methoxypyrrolidine-1-sulfonamide] | 20.5 nM | 24.8% | –
Cn1nc(N2CCC(=O)NC2=O)c2cc(F)c(N3CCC(O)(CC(=O)N4CCC5(CC4)C[C@@H](n4cnc6ccc(Oc7c(F)ccc(NS(=O)(=O)N8CCCC8)c7C#N)cc6c4=O)CO5)CC3)cc21 [Example 195, N-[2-cyano-3-[3-[(3R)-8-[2-[1-[3-(2,4-dioxo-1,3-diazinan-1-yl)-5-fluoro-1-methylindazol-6-yl]-4-hydroxypiperidin-4-yl]acetyl]-1-oxa-8-azaspiro[4.5]decan-3-yl]-4-oxoquinazolin-6-yl]oxy-4-fluorophenyl]pyrrolidine-1-sulfonamide] | 16 nM | 26.3% | –
Cn1nc(C2CCC(=O)NC2=O)c2ccc(C3CCN(CC(=O)N4CCC5(CC4)C[C@@H](n4cnc6ccc(Oc7c(F)ccc(NS(=O)(=O)C8CCCC8)c7C#N)cc6c4=O)CO5)CC3)cc21 (stereo partly drawn) [Example 167, N-[2-cyano-3-[3-[(3R)-8-[2-[4-[3-(2,6-dioxopiperidin-3-yl)-1-methylindazol-6-yl]piperidin-1-yl]acetyl]-1-oxa-8-azaspiro[4.5]decan-3-yl]-4-oxoquinazolin-6-yl]oxy-4-fluorophenyl]cyclopentanesulfonamide] | 42.6 nM | 16.5% | –
CCN(C)S(=O)(=O)Nc1ccc(F)c(Oc2ccc3ncn([C@H]4CCC5(CCN(C(=O)CN6CCC(c7ccc(NC8CCC(=O)NC8=O)c(F)c7F)CC6)CC5)C4)c(=O)c3c2)c1C#N (stereo partly drawn) [Example 63, 6-[2-cyano-3-[[ethyl(methyl)sulfamoyl]amino]-6-fluorophenoxy]-3-[(3S)-8-[2-[4-[4-[(2,6-dioxopiperidin-3-yl)amino]-2,3-difluorophenyl]piperidin-1-yl]acetyl]-8-azaspiro[4.5]decan-3-yl]-4-oxoquinazoline] | 20.4 nM | – | 9.52%
CCN(C)S(=O)(=O)Nc1ccc(F)c(Oc2ccc3ncn([C@H]4COC5(CCN(C(=O)CN6CCC(c7ccc(NC8CCC(=O)NC8=O)cc7F)CC6)CC5)C4)c(=O)c3c2Br)c1C#N (single isomer, unassigned) [Example 73] | 30.7 nM | 12% | –

Further lines, with some results ahead:

DC50 (A375.10 cells, 24 h) | Emax [1] | SMILES | Emax
29.7 nM | 11.1% | N#Cc1c(NS(=O)(=O)N2CCCCC2)ccc(F)c1Oc1ccc2ncn(-c3cnc(N4CCN(C(=O)CN5CCC(c6ccc(N[C@H]7CCC(=O)NC7=O)cc6F)CC5)CC4)nc3)c(=O)c2c1 [Example 113, N-[2-cyano-3-[3-[2-[4-[2-[4-[4-[[(3S)-2,6-dioxopiperidin-3-yl]amino]-2-fluorophenyl]piperidin-1-yl]acetyl]piperazin-1-yl]pyrimidin-5-yl]-4-oxoquinazolin-6-yl]oxy-4-fluorophenyl]piperidine-1-sulfonamide] | –
21.1 nM | 8.44% | CC(C)S(=O)(=O)Nc1ccc(F)c(Oc2ccc3ncn([C@H]4COC5(CCN(C(=O)CN6CCC(c7ccc(NC8CCC(=O)NC8=O)cc7F)CC6)CC5)C4)c(=O)c3c2)c1C#N (stereo partly drawn) [Example 61, N-[2-cyano-3-[3-[(3R)-8-[2-[4-[4-[(2,6-dioxopiperidin-3-yl)amino]-2-fluorophenyl]piperidin-1-yl]acetyl]-1-oxa-8-azaspiro[4.5]decan-3-yl]-4-oxoquinazolin-6-yl]oxy-4-fluorophenyl]propane-2-sulfonamide] | –
16.4 nM | 8.4% | CCN(C)S(=O)(=O)Nc1ccc(F)c(Oc2ccc3ncn(-c4cnc(N5CCN(C(=O)CN6CCC(c7ccc(N[C@H]8CCC(=O)NC8=O)cc7F)CC6)CC5)nc4)c(=O)c3c2OC)c1C#N [Example 100, 6-[2-cyano-3-[[ethyl(methyl)sulfamoyl]amino]-6-fluorophenoxy]-3-[2-[4-[2-[4-[4-[[(3S)-2,6-dioxopiperidin-3-yl]amino]-2-fluorophenyl]piperidin-1-yl]acetyl]piperazin-1-yl]pyrimidin-5-yl]-5-methoxy-4-oxoquinazoline] | –
16.4 nM | 12.1% | CCN(C)S(=O)(=O)Nc1ccc(F)c(Oc2ccc3ncn(C4CCC5(CC4)CCN(C(=O)CN4CCC(c6ccc(NC7CCC(=O)NC7=O)cc6F)CC4)CC5)c(=O)c3c2)c1C#N (centres unmarked) [Example 30, 9-[6-[2-cyano-3-[[ethyl(methyl)sulfamoyl]amino]-6-fluorophenoxy]-4-oxoquinazolin-3-yl]-3-[2-[4-[4-[(2,6-dioxopiperidin-3-yl)amino]-2-fluorophenyl]piperidin-1-yl]acetyl]-3-azaspiro[5.5]undecane] | –
29.2 nM | 8.33% | CCN(C)S(=O)(=O)Nc1ccc(F)c(Oc2ccc3ncn(CCCC4(C)CCN(C(=O)CN5CCC(c6ccc(NC7CCC(=O)NC7=O)cc6F)CC5)CC4)c(=O)c3c2)c1C#N (centres unmarked) [Example 12, 6-[2-cyano-3-[[ethyl(methyl)sulfamoyl]amino]-6-fluorophenoxy]-3-[3-[1-[2-[4-[4-[(2,6-dioxopiperidin-3-yl)amino]-2-fluorophenyl]piperidin-1-yl]acetyl]-4-methylpiperidin-4-yl]propyl]-4-oxoquinazoline] | –
38.3 nM | 9.02% | COC1CN(S(=O)(=O)Nc2ccc(F)c(Oc3ccc4ncn(-c5cnc(N6CCN(C(=O)CN7CCC(c8ccc(N[C@H]9CCC(=O)NC9=O)cc8F)CC7)CC6)nc5)c(=O)c4c3)c2C#N)C1 [Example 117, N-[2-cyano-3-[3-[2-[4-[2-[4-[4-[[(3S)-2,6-dioxopiperidin-3-yl]amino]-2-fluorophenyl]piperidin-1-yl]acetyl]piperazin-1-yl]pyrimidin-5-yl]-4-oxoquinazolin-6-yl]oxy-4-fluorophenyl]-3-methoxyazetidine-1-sulfonamide] | –
20.5 nM | 15.5% | CCN(C)S(=O)(=O)Nc1ccc(F)c(Oc2ccc3ncn(-c4cnn(C5CCN(C(=O)CN6CCC(c7ccc(NC8CCC(=O)NC8=O)cc7F)CC6)CC5)c4)c(=O)c3c2)c1C#N (centres unmarked) [Example 16, 6-[2-cyano-3-[[ethyl(methyl)sulfamoyl]amino]-6-fluorophenoxy]-3-[1-[1-[2-[4-[4-[(2,6-dioxopiperidin-3-yl)amino]-2-fluorophenyl]piperidin-1-yl]acetyl]piperidin-4-yl]pyrazol-4-yl]-4-oxoquinazoline] | –
